US20240116923A1, “USE OF INDOLE, 6- AND 7-AZAINDOLE DERIVATIVES AS INHIBITORS OF FERROPTOSIS REGULATED CELL DEATH” (Seabelife, priority 2021, published 2024)
Read-outs that look alike come from different tables or passages of the source.

Tests used:
[1] = tested on: human neuroblastoma cell line SH-SY5Y; assay: Neurotoxicity assay, SH-SY5Y cells + erastin or RSL3, MTS cell viability; format: cell-based; settings: Homo sapiens
Procedure: The excitotoxicity model used was the mouse hippocampal neuronal HT22 cells treated with glutamate [Dixon et al., Cell, 2012, 149(5), 1060-1072]. Ferroptosis and oxidative stress are both associated in this glutamate-induced cell death [Chu et al., Neural Regen. Res., 2020, 15(3), 528-536]. Phenotypic screening was also carried out with additional cell death inducers, erastin and RSL3 ((1S,3R)-Ras-selective lethal), in HT22 and SH-SY5Y (human neuroblastoma cells). Erastin and RSL3 are well described molecules, used as chemical tools for the study of ferroptosis regulation and neuronal pathologies [Lewerenz et al., Front. Neurosci., 2018, 12: 214; Reichert et al., Int. J. Mol. Sci., 2020, 21, 8765].
Mouse hippocampal neuronal cell line (HT22, ATCC) and human neuroblastoma cell line (SH-SY5Y, ATCC) were grown in Dulbecco's Modified Eagle Medium (DMEM, Gibco) supplemented with 10% fetal bovine serum (FBS, Gibco) at 37° C. under 5% CO2 atmosphere. Neurotoxicity was induced by erastin or RSL3 and excitotoxicity was induced by glutamate. Cells were seeded in 96-well plates at 5,000 and 10,000 cells/well for HT22 and SH-SY5Y cell lines, respectively. Cells were treated with 0.5-1 μM Erastin (HT22 cells) or 10 μM Erastin (SH-SY5Y cells) or 5-10 mM glutamate (HT22 cells) or 0.5 μM RSL3 (HT22 cells) or 5 μM RSL3 (SH-SY5Y cells) for 24 h in presence of increasing concentrations of inhibitors. Cells treated with DMSO only were used as controls. Cell viability was assessed by MTS assay (CellTiter 96 AQueous One Solution Cell Proliferation assay, Promega).
In FIGS. 1, 2A and 2B, an inhibitor was added to HT22 (FIG. 1: compound 6) or SH-SY5Y (FIG. 2A: compound 6; FIG. 2B: compound 25) cells in the presence or not of cell death inducers (erastin, glutamate or RSL3). […] EC50 values for compounds 1-28 were calculated from dose-response curves using Graphpad Prism software.

Abca4−/−Rdh8−/− mice = assay: In vivo model of Stargardt's disease and AMD, blue light damage, ERG and OCT
Procedure: As described in Parmar et al., Invest Ophthalmol Vis Sci., 2016, 57(7), mice lacking ATP-binding cassette transporter 4 (ABCA4) and retinol dehydrogenase 8 (RDH8) mimic features of human Stargardt's disease and age-related macular degeneration. Intense light exposure can accelerate retinal degeneration in Abca4^−/−Rdh8^−/− mice.
Blue light damage (BLD) experiments are performed on 7-week-old Abca4−/−Rdh8−/− mice. The animals were adapted to low light levels (4000 lux, 30 minutes). Six days after BLD, an optical coherence tomography (OCT) examination of each eye is performed, which provides a “snapshot” of the state of the retinal cell layers in living mice. OCT is based on the use of a low coherence interferometer. This imaging technique allows in vivo cross-sectional images of tissues to be taken with a resolution of a few microns. It is performed under light gas anaesthesia (5% isoflurane at induction then 2% during maintenance) and is non-invasive. The pupils of the mice are dilated with 0.5% Midriaticum. A representative image of each eye was extracted and included in separate report documents (4 OCT attachments). The following day, measurements of the electrical activity of the retina were made by measuring scotopic and photopic electroretinograms (ERG). The scotopic ERG is performed after a night in the dark in order to measure the electrical response of the rods which represent 97% of the photoreceptors in the mouse. At higher intensities, the cones also respond. This is followed by a photopic ERG which records the response of the cones only. Three measurements corresponding to the activity of 1) rod and cone photoreceptors, 2) inner retinal bipolar cells and 3) cones only, are obtained. The eyes are then harvested and prepared for subsequent histological analysis. In the IP experiments, one eye is dissected and the retina and RPE are frozen separately. These tissues can be used for further measurements.
Compound 1 in powder form is taken up in DMSO in order to obtain a solution at 20 mM. These solutions are stored at −20° C. and are thawed extemporaneously to prepare a solution diluted 89 times in PBS. These solutions give a final concentration in the eye of around 50 μM for compound 1, and 0.25% DMSO. A vehicle is prepared from pure DMSO to achieve a final 0.25% in the vitreous. Mice are lightly anaesthetised with isoflurane during the IVT procedure. A volume of 1.5 μL is injected into the vitreous of the left eye.
In order to measure the thickness of the retina and the photoreceptor layer, image processing was performed using Image J software. The thickness of the whole retina is measured between the outer segment layer and the ganglion cell layer. The thickness of the photoreceptor layer is measured between the outer plexiform layer and the outer segment layer. On average 6 measurements are made along the length of an OCT image representing an upper or lower half-retina. In order to prepare plates of sections of the eyes from the SBL2 IVT experiment, one eye corresponding to each condition was cut on the cryostat, i.e. one NINI eye and both eyes of an SBL2-injected mouse (I and NI).
The solutions are prepared extemporaneously from water-soluble lyophilisates of compound 7 (SBL1)-cyclodextrin (final CD concentration, 15%) and the corresponding placebos. The solutions are prepared by injecting a predefined volume of 0.9% NaCl into the vial. The vial is then vortexed and the solution is filtered into a new sterile tube. Two groups of 3 mice are used for these tests. The group received either SBL1 (20 mg/kg) (n=3) or placebo-SBL1 (n=3). The volume to be injected is calculated according to the weight of the mice and corresponds to 10 ml/kg. Mice were injected 3 and 1 h before and 1 and 3 h after the start of the BLD.

Compound	EC50 ([1]; SH-SY5Y, 24 h, read-out: EC50 SH-SY5Y Erastin) [nM]	electrical response of retinal cells (scotopic and photopic ERG) (Abca4−/−Rdh8−/− mice; intravitreal injection, 50 μM in the eye, after blue light damage)	thickness of the retinas from OCT, injected versus non-injected eyes (Abca4−/−Rdh8−/− mice; intravitreal treatment, FIG. 33)	photopic ERG, injected vs non-injected eyes (Abca4−/−Rdh8−/− mice; intravitreal, 50 μM, 30 cd·s/m2, FIG. 30)	scotopic ERG B wave, injected vs uninjected eyes (Abca4−/−Rdh8−/− mice; intravitreal, 50 μM, p=0.048 vs VEH NI at 30 cd·s/m2, FIG. 32)	scotopic ERG A wave, injected eye vs vehicle-injected eye (Abca4−/−Rdh8−/− mice; intravitreal, 50 μM, significant (P=0.0206) vs VEH NI at 10 cd·s/m2, FIG. 31)	EC50 ([1]; SH-SY5Y cells, 5 μM RSL3, 24 h, MTS, read-out: EC50 SH-SY5Y RSL3) [nM]	EC50 ([1]; SH-SY5Y cells, 10 μM Erastin, 24 h, MTS, read-out: EC50 SH-SY5Y Erastin) [nM]	electrical response of retinal cells (scotopic and photopic ERG) compared to placebo (Abca4−/−Rdh8−/− mice; intraperitoneal 20 mg/kg, 3 and 1 h before and 1 and 3 h after start of BLD, cyclodextrin lyophilisate)	scotopic B wave at higher intensities (inner retina response) (Abca4−/−Rdh8−/− mice; intraperitoneal 20 mg/kg, FIG. 35)	scotopic ERG response to the 30 cd·s/m^2 flash intensity (mixed rod-cone response) (Abca4−/−Rdh8−/− mice; intraperitoneal 20 mg/kg, FIGS. 34 & 35)	whole retinal thickness from OCT, injected vs non-injected mice (Abca4−/−Rdh8−/− mice; intraperitoneal treatment, FIG. 36)
Oc1ccc(-c2cc3ccccc3[nH]2)cc1 [Compound 1, 4-(1H-indol-2-yl)phenol]	1060	appears to preserve the electrical response of retinal cells	significant difference	partially preserved	appears preserved	a clear difference is observed						
Oc1ccc(-c2cc3cccnc3[nH]2)cc1 [Compound 7, 4-(1H-pyrrolo[2,3-b]pyridin-2-yl)phenol]							1360	12400	slightly protect the electrical response of retinal cells	protective trend	protective trend	a difference between the whole retinas of injected and non-injected mice
